Assays:
chymotrypsin = target: T1, chymotrypsin (Bos taurus, UniProt P00766); experiment: Off-target study, residual activity after 2 min pre-incubation: chymotrypsin; format: biochemical, bovine; details: 2 min incubation, PBS pH 7.4, 37°C; for off-target inhibition of chymotrypsin: residual activity vs DMF control, NAP830 at concentrations up to 50 μM
T1 construct: purchased Sigma-Aldrich (supplement); Calbiochem; host or cells: bovine pancreas
Description: (§1) FIGURE 5 Results of “off-target“ studies. NAP849 (A), NAP800 (B) and NAP830 (C) were tested against trypsin, chymotrypsin, and NE. Samples (approx. 0.01 μg) of each protease were incubated with the indicated concentrations of test compound for 2 min, in PBS, pH 7.4, at 37°C. (D) NAP858, NAP962 and NAP849 were tested against cathepsin B at the indicated concentrations in 0.1 M MES, pH 6.1, containing 1 mM EDTA, for 2 min, at 37°C. Aliquots (approx. 10 μL) of each incubation sample were then added to a fresh sample (990 μL) of PBS for the serine proteases and MES for cathepsin B, containing the appropriate substrate for each protease, to measure their residual activity. Controls incubations were performed in the absence of test compound, but in the presence of an appropriate volume of DMF vehicle used to prepare stock solutions of each inhibitor under study.
(§2) Two elements were investigated regarding possible “off-target” effects–determining the extent of cross-reactivity of each of the new putative ABPs between the various serine protease family members and assessing their collateral inhibitory action against another mechanistic class–the cysteine proteases, using cathepsin B (CTSB) as an exemplar.
(§3) For assays requiring a pre-incubation step enzyme and inhibitor in assay buffer were incubated together, at 37 °C, for 2 min, with gentle agitation. The reaction mixture was then aliquoted (50 μL) in duplicate on a black 96-well microtitre plate followed by addition of substrate to make a final concentration of 50 μM in a total volume of 100 μL. The fluorescence production was then measured as described for the previous procedure.
(§4) Figure ST1. Results of “off-target” studies. NAP559 and NAP533 were tested against chymotrypsin, and NE. Samples (approx. 0.01 mg) of each protease were incubated with the indicated concentrations of test compound for 2 min, in PBS, pH 7.4, at 37 °C. Aliquots (approx. 10 µL) of each incubation sample were then added to a fresh sample (990 µL) of PBS containing the appropriate substrate for each protease, to measure their residual activity. Controls incubations were performed in the absence of test compound, but in the presence of an appropriate volume of DMF vehicle used to prepare stock solutions of each inhibitor under study.

cathepsin B (CTSB) = target: T2, cathepsin B (CTSB) (Homo sapiens, UniProt P07858); experiment: Off-target study, residual activity after 2 min pre-incubation: cathepsin B; format: biochemical; details: 25 and 50 μM, 0.1 M MES pH 6.1, 1 mM EDTA, 37°C
T2 construct: purchased R and D Systems
Description: as §1, §2, §3
Assays with Cathepsin B required a pre-activation step of the protease prior to use in the fluorogenic enzyme assays. Cathepsin B was diluted to 10 μg/ml in activation buffer (0.1 M MES, pH 6.1, containing 1 mM EDTA and 2 mM DTT) and left to stand at room temperature for 15 minutes. Activated Cathepsin B was then diluted (1:50 to give 10 ng/50 μl) with assay buffer (activation buffer minus the DTT) prior to use as described previously.

neutrophil elastase (NE) = target: T3, neutrophil elastase (NE) (Homo sapiens, UniProt P08246); experiment: Off-target study, residual activity after 2 min pre-incubation: NE; format: biochemical; details: 2 min incubation, PBS pH 7.4, 37°C; for off-target inhibition of neutrophil elastase: residual activity vs DMF control, NAP830 at concentrations up to 50 μM
T3 construct: purchased Calbiochem
T3 sequence (P08246 30-267): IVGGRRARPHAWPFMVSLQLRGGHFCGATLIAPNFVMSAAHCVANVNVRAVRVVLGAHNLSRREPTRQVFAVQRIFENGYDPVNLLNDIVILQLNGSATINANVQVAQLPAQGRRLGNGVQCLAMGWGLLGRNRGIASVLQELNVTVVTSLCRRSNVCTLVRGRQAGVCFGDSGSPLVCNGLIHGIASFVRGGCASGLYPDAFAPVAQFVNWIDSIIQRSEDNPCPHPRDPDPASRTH
Description: as §1, §2, §3, §4

plasmin = target: T4, plasmin (Homo sapiens, UniProt P00747); experiment: Activity-based profiling of plasmin (SDS-PAGE, streptavidin-HRP western blot); format: binding; details: 50 μM, 30 min, 37°C
T4 construct: purchased Sigma-Aldrich (supplement); R&D Systems; host or cells: human plasma
Description: Samples of recombinant protease (trypsin, plasmin, thrombin, chymotrypsin, or HNE, as indicated in the relevant figure legends) were treated with each of the newly synthesized compounds at a concentration of 50 μM, for 30 min, at 37°C. A control sample (no ABP) was prepared by treating the recombinant protease with solvent vehicle (DMF) only, used to prepare the stock solution of each ABP. Samples were also pre-treated (±90°C for 30 min) before being incubated with each putative ABP. With trypsin and thrombin, further samples were prepared where Z-Arg^P-(OPh)2 or NAP559, respectively, was added 30 min prior to the addition of the ABP under examination. All treated samples were then denatured with SDS containing reducing treatment buffer (10 min at 95°C), followed by resolution by SDS-PAGE and subjected to Western blotting. Resolved proteins were then transferred onto the nitrocellulose membrane and labeled with streptavidin-HRP. The ABP–protease complex was then visualized following treatment with Luminata Forte HRP substrate.
FIGURE 8 Activity Based Profiling of Trypsin-like serine proteases. (A) trypsin was treated (±) with NAP830, for 30 min, at 37°C (± pretreatment with Z-Arg^P-(OPh)2). (B) thrombin (1 […]) was pre-treated with various concentrations of NAP559 (30 min, at 37°C) followed by treatment (±) with NAP858 for 30 min, at 37°C. (C) Plasmin was treated in turn with QUBTL1, NAP962 and NAP830, (± pre-heat inactivation at 95°C, for 10 min) for 30 min, at 37°C. […]
Following transfer, the extra protein binding sites on the membrane were blocked by addition of 3% (w/v) BSA in TBST (20 mM Tris, 137 mM NaCl, 1% (v/v) Tween 20, pH 7.6) and agitated gently at room temperature for 30 minutes. The biotin-labelled proteases were then detected by addition of Streptavidin-HRP (Vector Laboratories) in 3% (w/v) BSA in TBST at a concentration of 1:20000, for 1 hour at room temperature. […]

T4 sequence (P00747 581-810 limits assumed): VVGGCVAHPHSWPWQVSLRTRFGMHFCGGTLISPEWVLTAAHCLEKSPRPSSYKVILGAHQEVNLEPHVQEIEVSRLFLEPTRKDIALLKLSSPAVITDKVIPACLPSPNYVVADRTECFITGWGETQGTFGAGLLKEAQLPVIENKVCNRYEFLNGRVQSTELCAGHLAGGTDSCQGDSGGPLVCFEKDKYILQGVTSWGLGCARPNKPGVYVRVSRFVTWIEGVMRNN
T4 sequence (P00747 97-580 partner limits assumed): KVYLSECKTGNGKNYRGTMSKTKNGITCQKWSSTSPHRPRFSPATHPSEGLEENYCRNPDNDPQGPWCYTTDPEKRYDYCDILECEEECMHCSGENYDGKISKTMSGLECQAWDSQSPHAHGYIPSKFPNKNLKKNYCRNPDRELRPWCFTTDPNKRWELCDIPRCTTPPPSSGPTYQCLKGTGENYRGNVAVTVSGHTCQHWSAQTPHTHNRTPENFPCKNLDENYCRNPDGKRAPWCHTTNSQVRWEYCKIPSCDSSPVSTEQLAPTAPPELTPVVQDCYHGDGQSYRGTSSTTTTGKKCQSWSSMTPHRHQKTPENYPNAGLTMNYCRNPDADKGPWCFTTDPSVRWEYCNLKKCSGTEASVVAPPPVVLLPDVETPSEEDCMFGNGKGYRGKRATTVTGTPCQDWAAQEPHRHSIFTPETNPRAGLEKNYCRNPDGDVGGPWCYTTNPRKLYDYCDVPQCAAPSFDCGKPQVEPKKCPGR

CC(C)N(CC(=O)NCC(=O)NCC(=O)NCCCOCCOCCOCCCNC(=O)CCCCC1SCC2NC(=O)NC21)C(=O)ON1C(=O)CCC1=O (stereo not drawn) [NAP800, Succinimidoyl-CO-NVal-Gly-Gly-PEG-Biotin]
off-target inhibition of chymotrypsin (chymotrypsin): no “off-target” or collateral inhibition

NCCCCN(CC(=O)NCC(=O)NCC(=O)NCCCOCCOCCOCCCNC(=O)CCCCC1SCC2NC(=O)NC21)C(=O)ON1C(=O)CCC1=O (stereo not drawn) [NAP830, Succinimidoyl-CO-NLys-Gly-Gly-PEG-Biotin]
inhibitory activity against CTSB (cathepsin B (CTSB)): none of the three carbamates tested exhibited any inhibitory activity against CTSB | off-target inhibition of neutrophil elastase (neutrophil elastase (NE)): no “off-target” effects | off-target inhibition of chymotrypsin (chymotrypsin): no “off-target” effects | labelling of plasmin by ABP (western blot) (plasmin): A band corresponding to the light (catalytic) chain of plasmin (26 kDa) was visible

O=C(CCCCC1SCC2NC(=O)NC21)NCCCOCCOCCOCCCNC(=O)CNC(=O)CNC(=O)CN(Cc1ccccc1)C(=O)ON1C(=O)CCC1=O (stereo not drawn) [NAP849, Succinimidoyl-CO-NPhe-Gly-Gly-PEG-Biotin]
off-target inhibition of neutrophil elastase (neutrophil elastase (NE)): complete absence of inhibition

N=C(N)NCCCN(CC(=O)N1CCC[C@H]1C(=O)N(CC(N)=O)Cc1ccccc1)C(=O)ON1C(=O)CCC1=O [NAP559, Succinimidoyl-CO-NArg-D-Pro-NPhe-NH2]
inhibition of NE (neutrophil elastase (NE); highest concentration (50 μM)): < 5 % of control | inhibition of chymotrypsin (chymotrypsin; highest concentration (50 μM)): < 5 % of control

CC(C)N(CC(=O)NCCCOCCOCCOCCCNC(=O)CCCCC1SCC2NC(=O)NC21)C(=O)CN(Cc1ccccc1)C(=O)CN(CCCCN)C(=O)ON1C(=O)CCC1=O (stereo not shown) [NAP962, Succinimidoyl-CO-NLys-NPhe-NVal-PEG-Biotin]
inhibitory activity against CTSB (cathepsin B (CTSB)): none of the three carbamates tested exhibited any inhibitory activity against CTSB | labelling of plasmin by ABP (western blot) (plasmin): A band corresponding to the light (catalytic) chain of plasmin (26 kDa) was visible

— article PMC9555310, “Novel inhibitors and activity-based probes targeting serine proteases” (Frontiers in Chemistry, 2022)
